pIC50: −log10 of the molar value.
Key:
[1] = system: HIV-1 expression in ACH-2 cells; assay: Induction of the HIV-1 expression in the ACH-2 cell line (p24); type: cell-based; conditions: 24 hours
Method: ACH2 cells were obtained through AIDS Research and Reference Reagent Program, Division of AIDS, National Institute of Allergy and Infectious Diseases, National Institutes of Health, Bethesda, Md. The cells were cultured in flasks, washed in RPMI and resuspended in RPMI/10% FCS at a concentration of 2×10^6 cells/mL. […] After 24 hours of incubation at 37° C./5% CO2, 50 μL of supernatant were removed for the cytotoxicity assay of the lactate dehydrogenase (LDH) and Triton-X-100 (0.5% vol/vol final concentration) were added to each culture. The p24 assays of the lysates were performed immediately.
p24 was measured using specific antibodies immobilized on magnetic beads as previously described [Nold M. F. et al. J. Immunol. […] The levels of p24 for each experiment without HDAC inhibitors were fixed at 1.0 and the increase values by the number of times for each experiment and each analogous were calculated.

HDAC2 = HDAC2 (Homo sapiens, UniProt Q92769); assay: Inhibition of histone deacetylase isoforms, HDAC2
Sequence of HDAC2 (Q92769 whole entry, canonical isoform): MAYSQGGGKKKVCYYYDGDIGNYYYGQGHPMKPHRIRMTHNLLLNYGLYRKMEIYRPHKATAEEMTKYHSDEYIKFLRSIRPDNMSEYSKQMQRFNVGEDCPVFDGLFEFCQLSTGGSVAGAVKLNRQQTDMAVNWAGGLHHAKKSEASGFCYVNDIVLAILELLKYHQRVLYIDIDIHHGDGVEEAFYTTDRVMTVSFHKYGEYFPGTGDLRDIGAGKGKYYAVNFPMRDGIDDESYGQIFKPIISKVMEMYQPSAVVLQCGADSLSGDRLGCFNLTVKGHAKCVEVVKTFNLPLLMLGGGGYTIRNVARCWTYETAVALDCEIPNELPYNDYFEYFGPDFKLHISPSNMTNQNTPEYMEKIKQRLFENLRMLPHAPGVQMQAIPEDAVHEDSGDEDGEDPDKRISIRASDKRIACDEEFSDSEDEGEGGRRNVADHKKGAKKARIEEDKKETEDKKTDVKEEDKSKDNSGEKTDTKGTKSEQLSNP
Method: (§1) Recombinant human enzymes were acquired from BPS Biosciences (CA, USA). Isoforms of Class I HDAC1, 2, 3; HDAC6, 10 of Class IIb and Class IV HDAC11 were tested using the Fluor-de-Lys fluorogenic synthetic substrate (Enzo Life Sciences, Plymouth Meeting, Pa.). […] The recombinant human HDAC8 assay was performed using HDAC8 Fluorimetric Drug Discovery Kit (Enzo) according to the manufacturer instructions. Each inhibitor was dissolved in DMSO and then further diluted in an assay buffer. […] The assays were performed by pre-incubating each enzyme with the inhibitors for 15 minutes at 37° C. The reaction was started by adding the substrate at 37° C. and allowed to proceed for 60 minutes. The fluorescent signal was generated by adding 50 μL of a twice concentrated developer solution 2 (Enzo) containing trichostatin A 4 μM.

HDAC4 = HDAC4 (Homo sapiens, UniProt P56524); assay: Inhibition of histone deacetylase isoforms, HDAC4
Sequence of HDAC4 (P56524 whole entry, canonical isoform): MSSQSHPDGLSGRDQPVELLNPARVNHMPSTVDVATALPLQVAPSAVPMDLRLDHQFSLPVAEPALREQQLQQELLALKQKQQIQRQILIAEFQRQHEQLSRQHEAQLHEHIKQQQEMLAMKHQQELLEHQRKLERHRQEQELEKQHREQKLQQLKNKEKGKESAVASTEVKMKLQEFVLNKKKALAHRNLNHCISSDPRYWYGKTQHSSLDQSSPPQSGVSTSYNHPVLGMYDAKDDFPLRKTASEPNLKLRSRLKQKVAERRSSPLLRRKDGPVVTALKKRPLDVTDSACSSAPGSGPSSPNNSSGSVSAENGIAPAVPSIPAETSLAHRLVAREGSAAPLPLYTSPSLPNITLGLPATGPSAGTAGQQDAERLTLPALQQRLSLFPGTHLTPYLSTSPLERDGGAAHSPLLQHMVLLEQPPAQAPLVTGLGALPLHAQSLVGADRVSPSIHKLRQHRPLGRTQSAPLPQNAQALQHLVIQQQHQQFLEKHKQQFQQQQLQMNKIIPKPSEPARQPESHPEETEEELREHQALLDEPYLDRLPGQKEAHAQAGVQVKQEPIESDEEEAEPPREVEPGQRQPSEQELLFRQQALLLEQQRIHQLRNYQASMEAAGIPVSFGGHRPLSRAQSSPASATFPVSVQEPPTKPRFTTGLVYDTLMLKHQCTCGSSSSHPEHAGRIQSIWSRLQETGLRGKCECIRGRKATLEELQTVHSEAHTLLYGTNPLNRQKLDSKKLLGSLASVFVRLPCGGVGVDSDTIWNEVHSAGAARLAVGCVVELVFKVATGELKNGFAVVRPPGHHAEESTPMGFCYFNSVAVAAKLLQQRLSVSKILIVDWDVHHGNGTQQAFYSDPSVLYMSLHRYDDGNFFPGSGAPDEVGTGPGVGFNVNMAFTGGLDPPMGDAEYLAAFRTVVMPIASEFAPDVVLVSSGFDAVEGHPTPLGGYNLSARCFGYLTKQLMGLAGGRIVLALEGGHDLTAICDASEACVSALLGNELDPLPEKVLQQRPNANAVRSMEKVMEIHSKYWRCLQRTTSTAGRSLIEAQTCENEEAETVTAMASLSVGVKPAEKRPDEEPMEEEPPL
Method: (§2) Recombinant human enzymes were acquired from BPS Biosciences (CA, USA). Isoforms of Class I HDAC1, 2, 3; HDAC6, 10 of Class IIb and Class IV HDAC11 were tested using the Fluor-de-Lys fluorogenic synthetic substrate (Enzo Life Sciences, Plymouth Meeting, Pa.). […] Each inhibitor was dissolved in DMSO and then further diluted in an assay buffer. […] The assays were performed by pre-incubating each enzyme with the inhibitors for 15 minutes at 37° C. The reaction was started by adding the substrate at 37° C. and allowed to proceed for 60 minutes. The fluorescent signal was generated by adding 50 μL of a twice concentrated developer solution 2 (Enzo) containing trichostatin A 4 μM.

HDAC7 = biological target: T1, HDAC7 (Homo sapiens, UniProt Q8WUI4); assay: Inhibition of histone deacetylase isoforms, HDAC7
T1 sequence (Q8WUI4 1-952): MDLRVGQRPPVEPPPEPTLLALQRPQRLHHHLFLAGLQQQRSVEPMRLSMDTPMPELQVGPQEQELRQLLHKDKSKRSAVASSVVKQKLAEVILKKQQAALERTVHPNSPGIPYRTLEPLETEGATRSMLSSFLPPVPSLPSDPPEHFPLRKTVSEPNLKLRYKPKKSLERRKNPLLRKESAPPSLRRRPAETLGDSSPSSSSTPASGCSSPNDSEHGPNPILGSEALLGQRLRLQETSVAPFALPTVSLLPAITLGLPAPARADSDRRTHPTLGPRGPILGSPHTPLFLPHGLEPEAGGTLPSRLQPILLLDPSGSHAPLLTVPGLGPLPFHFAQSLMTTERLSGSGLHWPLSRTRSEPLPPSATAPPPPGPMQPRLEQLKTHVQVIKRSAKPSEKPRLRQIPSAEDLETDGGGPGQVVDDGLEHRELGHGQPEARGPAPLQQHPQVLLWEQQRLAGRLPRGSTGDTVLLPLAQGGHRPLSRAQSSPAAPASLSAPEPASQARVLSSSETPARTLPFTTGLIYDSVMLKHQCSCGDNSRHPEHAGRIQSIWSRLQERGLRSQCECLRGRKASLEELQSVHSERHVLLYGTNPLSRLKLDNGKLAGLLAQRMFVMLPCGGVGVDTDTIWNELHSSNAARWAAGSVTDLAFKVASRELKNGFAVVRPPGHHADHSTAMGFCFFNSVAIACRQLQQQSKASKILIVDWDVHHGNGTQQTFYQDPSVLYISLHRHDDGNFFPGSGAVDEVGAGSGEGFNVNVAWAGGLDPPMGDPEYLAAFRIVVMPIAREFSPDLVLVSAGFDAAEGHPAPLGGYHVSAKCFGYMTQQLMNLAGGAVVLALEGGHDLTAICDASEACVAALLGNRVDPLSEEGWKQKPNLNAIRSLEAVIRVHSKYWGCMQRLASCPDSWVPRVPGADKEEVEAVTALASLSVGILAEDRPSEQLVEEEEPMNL
Method: as §1

HDAC10 = biological target: T2, HDAC10 (Homo sapiens, UniProt Q969S8); assay: Inhibition of histone deacetylase isoforms, HDAC10
T2 sequence (Q969S8 1-669): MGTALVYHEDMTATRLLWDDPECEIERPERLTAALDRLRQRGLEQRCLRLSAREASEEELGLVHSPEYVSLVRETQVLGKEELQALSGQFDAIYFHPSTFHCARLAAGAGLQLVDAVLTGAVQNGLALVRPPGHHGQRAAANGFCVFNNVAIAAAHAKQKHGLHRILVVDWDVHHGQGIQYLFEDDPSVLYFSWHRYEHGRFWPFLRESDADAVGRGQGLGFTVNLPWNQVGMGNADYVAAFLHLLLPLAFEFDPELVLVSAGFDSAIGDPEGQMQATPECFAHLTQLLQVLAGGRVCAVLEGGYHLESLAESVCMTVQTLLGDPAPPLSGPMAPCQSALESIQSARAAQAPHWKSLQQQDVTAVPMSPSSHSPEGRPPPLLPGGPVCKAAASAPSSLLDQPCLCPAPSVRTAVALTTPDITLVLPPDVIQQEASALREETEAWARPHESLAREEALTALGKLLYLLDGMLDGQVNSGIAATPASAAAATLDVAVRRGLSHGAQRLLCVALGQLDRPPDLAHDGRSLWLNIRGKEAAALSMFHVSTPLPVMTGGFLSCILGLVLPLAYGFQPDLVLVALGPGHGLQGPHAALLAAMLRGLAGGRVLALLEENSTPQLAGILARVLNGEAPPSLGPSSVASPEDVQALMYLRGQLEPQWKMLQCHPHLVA
Method: as §2

SMILES	increase of the number of times in the level of p24 with respect to control ([1]; 31 nM) [times]	increase of the number of times in the level of p24 with respect to control ([1]; 63 nM) [times]	increase of the number of times in the level of p24 with respect to control ([1]; 125 nM) [times]	increase of the number of times in the level of p24 with respect to control ([1]; 250 nM) [times]	increase of the number of times in the level of p24 with respect to control ([1]; 250 nM, listed as compound t) [times]	pIC50 (HDAC2)	pIC50 (HDAC4)	pIC50 (HDAC7)	pIC50 (HDAC10)	increase of the number of times in the level of p24 with respect to control ([1]; 250 nM, listed as compound g) [times]
O=C(NO)c1ccc(NC(=O)[C@H](Cc2ccc3ccccc3c2)NC(=O)c2ccc3c(c2)OCO3)cc1 [Compound t, benzo[1,3]dioxole-5-carboxylic acid [1(S)-(4-hydroxycarbamoyl-phenylcarbamoyl)-2-naphtalen-2-yl-ethy]-amide]	1	2	10	33	30	7.53	< 5.00	5.06	6.56	
O=C(NO)c1ccc(NC(=O)[C@H](Cc2ccc3ccccc3c2)NC(=O)c2ccccc2)cc1 [Compound g, 4-(2(S)-benzoylamino-3-naphtalen-2-yl-propionylamino)-N-hydroxy-benzamide]	2	3	10	27		7.92	5.51	5.69	6.88	30
